Assay results as given in PMC6128881, “Novel insight into the reaction of nitro, nitroso and hydroxylamino benzothiazinones and of benzoxacinones with Mycobacterium tuberculosis DprE1” (Scientific Reports, 2018).
pIC50: −log10 of the molar value. ≈ marks a conversion by molar mass, not a printed value. Where “and” joins values, the source holds several entries; their conditions need not be identical. Identical values can stand only once. Like-named read-outs stand apart in the source and are kept apart here.

Legend:
[1] = test system: M. smegmatis; parameters: method as in PMID 22956199; details: cited from earlier work
[2] = test system: M. smegmatis; assay: MIC against M. smegmatis (literature); assay type: cell-based
[3] = test system: M. smegmatis DprE1; parameters: method as in PMID 22956199; details: cited from earlier work; for pIC50: read-out: M. smegmatis DprE1 enzymatic IC50
[4] = assay type: physicochemical; details: pH 7.4
Method: Solubility of compounds was measured by Chemi-Luminescent Nitrogen Detection (CLND)[32]. […] of 10 mM DMSO stock solutions of compounds were diluted to […] with phosphate buffered saline (PBS), pH 7.4, equilibrated for 1 hour at room temperature and filtered through Millipore Multiscreen HTS-PCF filter plates (MSSL BPC) prior to analysis by CLND.

[5] = test system: M. vaccae 10670; assay: Minimal inhibitory concentration, M. vaccae; assay type: cell-based; details: n = 1
[6] = biological target: T1, Mtb-DprE1 (Mycobacterium tuberculosis, UniProt P9WJF1); assay: biochemical; assay type: biochemical; details: for kinact/Ki: second order rate constant of inactivation, 150 nM Mtb-DprE1, 1 mM FPR, up to 100 min; for fold lower kinact/Ki of BOZ than the BTZ counterpart: 4 vs 7, 3 vs 6, 5 vs 9; for dependence of kobs on inhibitor concentration: inhibitor 10 nM to 100 µM; for fold increase in kinact/Ki as compared to 7: relative to 7
T1 construct: made in house; host or cells: E. coli
T1 sequence (P9WJF1 whole entry): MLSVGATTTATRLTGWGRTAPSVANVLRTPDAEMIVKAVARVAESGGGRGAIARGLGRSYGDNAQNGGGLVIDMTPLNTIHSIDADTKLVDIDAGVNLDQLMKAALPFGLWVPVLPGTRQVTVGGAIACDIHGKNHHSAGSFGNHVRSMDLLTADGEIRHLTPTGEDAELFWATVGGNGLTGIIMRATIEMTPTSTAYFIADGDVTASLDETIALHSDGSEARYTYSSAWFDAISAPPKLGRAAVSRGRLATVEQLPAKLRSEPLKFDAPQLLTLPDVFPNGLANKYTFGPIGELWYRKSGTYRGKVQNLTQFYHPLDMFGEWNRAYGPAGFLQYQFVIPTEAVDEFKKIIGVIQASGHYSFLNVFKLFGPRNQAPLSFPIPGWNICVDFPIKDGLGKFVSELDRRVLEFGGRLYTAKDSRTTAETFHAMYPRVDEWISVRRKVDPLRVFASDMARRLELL

[7] = test system: M. tuberculosis H37Rv; assay: Minimal inhibitory concentration, M. tuberculosis H37Rv; assay type: cell-based, Mycobacterium tuberculosis; details: for MIC Mtb-H37Rv / MIC / Inhibition of Mtb-H37Rv (MIC): n = 3; for MIC: read-out: MIC Mtb-H37Rv; for fold higher Mtb MIC of BOZ relative to BTZ counterpart: 5 vs 9, 10 vs PBTZ169
Method: MIC values for M. tuberculosis H37Rv and M. vaccae […] were determined as described previously[33],[34].

[8] = biological target: T1, Mtb-DprE1; assay: Intact protein mass spectrometry of Mtb-DprE1 after incubation with inhibitor; assay type: binding; details: for mass increase of Mtb-DprE1 (covalent adduct): incubated in the presence of FPR and FAD, LC-MS; for extent of modification of Mtb-DprE1: 20 μM FAD
[9] = IC50, final value of the decrease during the first 100 min of reaction, 100 min of reaction
[10] = IC50, starting value of the decrease during the first 100 min of reaction, early reaction time
[11] = Mycobacterium tuberculosis, H37RV

Structure (SMILES)	CLND Solubility [4] [µM]	MIC [5] [µM]	MIC M. vaccae 10670 [5]	kinact/Ki [6] [M⁻¹ s⁻¹]	MIC Mtb-H37Rv [7]	MIC [7] [µM]	dependence of kobs on inhibitor concentration [6]	further results
C[C@H]1COC2(CCN(c3nc(=O)c4cc(C(F)(F)F)cc(NO)c4s3)CC2)O1 [BTZ046]	–	–	–	–	–	–	–	MIC against M. smegmatis [1]: 1000 ng/ml and 2.4 μM; fold by which MIC against M. smegmatis is lower than the enzymatic IC50 ([2]; from literature values): approximately 8 fold; time dependent inhibition of M. smegmatis DprE1 [3]: not observed; pIC50 [3]: 4.70
O=c1nc(N2CCCCC2)sc2c([N+](=O)[O-])cc(C(F)(F)F)cc12 [C00002]	370	1.1 (≈ 0.395 µg/mL)	0.4 µg/mL (≈ 1.11 µM)	39 ± 2	1.2 µg/mL (≈ 3.34 µM)	3.3 (≈ 1.19 µg/mL)	–	–
O=c1nc(N2CCOCC2)sc2c([N+](=O)[O-])cc(C(F)(F)F)cc12 [C00003]	≥450	8.6 (≈ 3.11 µg/mL)	3.1 µg/mL (≈ 8.58 µM)	17 ± 2	2.1 µg/mL (≈ 5.81 µM)	5.9 (≈ 2.13 µg/mL)	–	–
O=c1nc(N2CCCCC2)oc2c([N+](=O)[O-])cc(C(F)(F)F)cc12 [C00006]	≥510	4.6 (≈ 1.58 µg/mL)	1.6 µg/mL (≈ 4.66 µM)	5.6 ± 0.1	5.3 µg/mL (≈ 15.4 µM)	16 (≈ 5.49 µg/mL)	–	–
O=c1nc(N2CCOCC2)oc2c([N+](=O)[O-])cc(C(F)(F)F)cc12 [C00007]	≥510	18 (≈ 6.21 µg/mL)	6.2 µg/mL (≈ 18 µM)	4.2 ± 0.1	1.4 µg/mL (≈ 4.06 µM)	3.9 (≈ 1.35 µg/mL)	–	–
C[C@H]1COC2(CCN(c3nc(=O)c4cc(C(F)(F)F)cc([N+](=O)[O-])c4s3)CC2)O1 [C00009]	32	0.001 (≈ 0.000431 µg/mL)	0.0004 µg/mL (≈ 0.000927 µM)	720 ± 20	0.001 µg/mL (≈ 0.00232 µM)	0.0023 (≈ 0.000992 µg/mL)	–	–
O=c1nc(N2CCN(CC3CCCCC3)CC2)sc2c([N+](=O)[O-])cc(C(F)(F)F)cc12 [C00010]	32	–	–	–	0.00019 µg/mL (≈ 0.000416 µM)	0.00042 (≈ 0.000192 µg/mL)	–	–
O=c1nc(N2CCN(CC3CCCCC3)CC2)oc2c([N+](=O)[O-])cc(C(F)(F)F)cc12 [C00011]	12	< 0.11	< 0.05 µg/mL	300 ± 40	0.14 µg/mL (≈ 0.318 µM)	0.31 (≈ 0.137 µg/mL)	–	–
O=Nc1cc(C(F)(F)F)cc2c(=O)nc(N3CCCCC3)sc12 [C00012]	250	73 (≈ 25.1 µg/mL)	25 µg/mL (≈ 72.8 µM)	–	–	–	–	Inhibition of Mtb-H37Rv (MIC) ([7]; at 80 μM): 82% Inhibition at 80 μM
O=c1nc(N2CCCCC2)sc2c(NO)cc(C(F)(F)F)cc12 [C00013]	10	18 (≈ 6.22 µg/mL)	6.2 µg/mL (≈ 18 µM)	–	–	>80	–	–
C[C@H]1COC2(CCN(c3nc(=O)c4cc(C(F)(F)F)cc(N=O)c4s3)CC2)O1 [C00014]	210	0.06 (≈ 0.0249 µg/mL)	0.03 µg/mL (≈ 0.0722 µM)	39 ± 1	–	–	–	Inhibition of Mtb-H37Rv (MIC) ([7]; at 0.16 μM): 67% Inhibition at 0.16 μM
O=Nc1cc(C(F)(F)F)cc2c(=O)nc(N3CCCCC3)sc12 [Compound 1, 8-Nitroso-2-(piperidin-1-yl)-6-(trifluoromethyl)-4H-1,3-benzothiazin-4-one]	–	–	–	–	–	–	–	mass increase of Mtb-DprE1 (covalent adduct) [8]: 343 Da; pIC50 [6, 9]: 5.52; pIC50 [6, 10]: 5.30
O=c1nc(N2CCCCC2)sc2c(NO)cc(C(F)(F)F)cc12 [Compound 2]	–	–	–	–	–	–	–	mass increase of Mtb-DprE1 species (covalent adduct) ([8]; 10 µM Mtb-DprE1, 20 µM compound, absence of FPR and resazurin): 340–343 Da; time for covalent modification of the enzyme to reach completion ([8]; 20 μM compound, 10 µM Mtb-DprE1, no FPR): approximately one hour; extent of modification of Mtb-DprE1 ([8]; 30 minutes after incubation): partial modification; extent of modification of Mtb-DprE1 ([8]; 60 minutes after incubation): complete modification; mass increase of Mtb-DprE1 (covalent adduct) [8]: 343 Da; MIC ([5]; Mycolicibacterium vaccae, 10670): 18.1 µM (≈ 6.25 µg/mL); pIC50 [6, 9]: 6.10; pIC50 [6, 10]: 5.46; MIC [7, 11]: > 80 µM
O=c1nc(N2CCOCC2)oc2c([N+](=O)[O-])cc(C(F)(F)F)cc12 [Compound 3, 2-(morpholin-4-yl)-8-nitro-6-(trifluoromethyl)-4H-1,3-benzoxazin-4-one]	–	–	–	–	–	–	linear dependence	fold lower kinact/Ki of BOZ than the BTZ counterpart [6]: 4 fold
O=c1nc(N2CCCCC2)oc2c([N+](=O)[O-])cc(C(F)(F)F)cc12 [Compound 4, 8-nitro-2-(piperidin-1-yl)-6-(trifluoromethyl)-4H-1,3-benzoxazin-4-one]	–	–	–	–	–	–	linear dependence	fold lower kinact/Ki of BOZ than the BTZ counterpart [6]: 7 fold
CC1CCCC(C)N1c1nc(=O)c2cc(C(F)(F)F)cc([N+](=O)[O-])c2o1 (centres unmarked) [Compound 5, 2-(2,6-Dimethylpiperidin-1-yl)-8-nitro-6-(trifluoromethyl)-4H-1,3-benzoxazin-4-one]	–	–	–	–	–	–	linear dependence	fold lower kinact/Ki of BOZ than the BTZ counterpart [6]: 31 fold; fold higher Mtb MIC of BOZ relative to BTZ counterpart [7]: 8 fold
O=c1nc(N2CCOCC2)sc2c([N+](=O)[O-])cc(C(F)(F)F)cc12 [Compound 6, 2-(morpholin-4-yl)-8-nitro-6-(trifluoromethyl)-4H-1,3-benzothiazin-4-one]	–	–	–	–	–	–	hyperbolic dependence	–
O=c1nc(N2CCCCC2)sc2c([N+](=O)[O-])cc(C(F)(F)F)cc12 [Compound 7, 8-Nitro-2-(piperidin-1-yl)-6-(trifluoromethyl)-4H-1,3-benzothiazin-4-one]	–	–	low micromolar	–	low micromolar	–	linear dependence	–
CC1COC2(CCN(c3nc(=O)c4cc(C(F)(F)F)cc(N=O)c4s3)CC2)O1 (centres unmarked) [Compound 8, 2-{2-Methyl-1,4-dioxa-8-azaspiro[4.5]decan-8-yl}-8-nitroso-6-(trifluoromethyl)-4H-1,3 benzothiazin-4-one]	–	–	–	–	–	–	linear dependence	–
CC1CCCC(C)N1c1nc(=O)c2cc(C(F)(F)F)cc([N+](=O)[O-])c2s1 (centres unmarked) [Compound 9, 2-(2,6-Dimethylpiperidin-1-yl)-8-nitro-6-(trifluoromethyl)-4H-1,3-benzothiazin-4-one]	–	–	–	–	–	–	linear dependence	fold increase in kinact/Ki as compared to 7 [6]: 6 fold
O=c1nc(N2CCN(CC3CCCCC3)CC2)oc2c([N+](=O)[O-])cc(C(F)(F)F)cc12 [Compound 10, 2-[4-(cyclohexylmethyl)piperazin-1-yl]-8-nitro-6-(trifluoromethyl)-4H-1,3-benzoxazin-4-one]	–	–	–	–	–	–	hyperbolic dependence	fold higher Mtb MIC of BOZ relative to BTZ counterpart [7]: approximately 700 fold; MIC [7, 11]: 0.3 µM (≈ 0.132 µg/mL)
O=c1nc(N2CCCCC2)sc2c([N+](=O)[O-])c(Cl)c(C(F)(F)F)cc12 [Compound 11, 7-Chloro-8-nitro-2-(piperidin-1-yl)-6-(trifluoromethyl)-4H-1,3-benzothiazin-4-one]	–	–	–	–	–	–	hyperbolic dependence	mass increase of Mtb-DprE1 (covalent adduct) [8]: 378 Da; fold increase in kinact/Ki as compared to 7 [6]: 8.7 fold
C[C@H]1COC2(CCN(c3nc(=O)c4cc(C(F)(F)F)cc([N+](=O)[O-])c4s3)CC2)O1 [Compound 12, reference compound]	–	–	–	–	–	–	linear dependence	change in the mass spectrum of Mtb-DprE1 ([8]; control experiment in the absence of substrate): no change was observed; fold by which reported M. smegmatis and M. tuberculosis MIC values are lower than M. smegmatis DprE1 IC50 ([2]; MIC ref 4, IC50 ref 9): approximately 1000 fold; pIC50 ([6]; after 10 min of reaction time, read-out: enzymatic DprE1 IC50): ~5.82; pIC50 ([6]; after 100 min of reaction time, read-out: enzymatic DprE1 IC50): ~6.92; pIC50 ([6]; equal to half the concentration of enzyme in the assay (150 nM), read-out: limiting IC50 value in theory had the assay been monitored longer): 7.12; pIC50 [3]: 5.35
